The values that follow come from ChEMBL document CHEMBL2434822, “Discovery of pteridin-7(8H)-one-based irreversible inhibitors targeting the epidermal growth factor receptor (EGFR) kinase T790M/L858R mutant” (J Med Chem, 2013).

Data set [1] deals with T1, Tyrosine-protein kinase JAK3 (Homo sapiens) (UniProt P52333).
T1 sequence (whole entry): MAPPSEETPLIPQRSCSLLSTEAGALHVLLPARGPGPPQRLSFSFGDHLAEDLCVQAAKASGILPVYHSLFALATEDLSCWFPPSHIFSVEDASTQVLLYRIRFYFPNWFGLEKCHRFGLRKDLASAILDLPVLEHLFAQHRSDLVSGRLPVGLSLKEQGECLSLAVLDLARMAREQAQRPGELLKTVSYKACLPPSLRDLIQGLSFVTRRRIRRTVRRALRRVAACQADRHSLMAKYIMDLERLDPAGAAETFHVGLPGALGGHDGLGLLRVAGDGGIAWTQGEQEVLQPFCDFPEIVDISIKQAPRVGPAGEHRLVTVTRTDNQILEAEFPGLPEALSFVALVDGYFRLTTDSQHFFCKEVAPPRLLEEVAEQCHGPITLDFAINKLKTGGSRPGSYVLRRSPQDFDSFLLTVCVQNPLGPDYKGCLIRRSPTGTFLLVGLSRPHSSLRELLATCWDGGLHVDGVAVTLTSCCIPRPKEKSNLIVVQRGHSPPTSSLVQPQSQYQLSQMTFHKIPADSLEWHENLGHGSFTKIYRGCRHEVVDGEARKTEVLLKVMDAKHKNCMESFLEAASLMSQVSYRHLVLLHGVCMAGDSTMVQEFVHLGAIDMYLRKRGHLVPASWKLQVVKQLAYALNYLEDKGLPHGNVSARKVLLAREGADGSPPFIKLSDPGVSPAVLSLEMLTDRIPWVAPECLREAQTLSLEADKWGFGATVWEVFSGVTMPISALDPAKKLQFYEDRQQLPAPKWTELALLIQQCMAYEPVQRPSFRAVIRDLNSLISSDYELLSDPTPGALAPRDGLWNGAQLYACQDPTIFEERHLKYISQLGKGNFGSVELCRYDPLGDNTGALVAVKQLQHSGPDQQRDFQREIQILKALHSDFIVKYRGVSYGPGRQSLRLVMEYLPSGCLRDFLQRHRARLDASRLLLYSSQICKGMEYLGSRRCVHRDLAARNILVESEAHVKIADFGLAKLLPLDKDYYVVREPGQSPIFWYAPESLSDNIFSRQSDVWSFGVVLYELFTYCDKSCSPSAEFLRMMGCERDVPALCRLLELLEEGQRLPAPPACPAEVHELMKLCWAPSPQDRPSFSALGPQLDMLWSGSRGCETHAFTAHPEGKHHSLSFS
Particulars: 1 uM.
Description: Inhibition of JAK3 JH1 catalytic domain (unknown origin) at 1 uM after 1 hr relative to control

The target in data set [2] is Receptor tyrosine-protein kinase erbB-4 (Homo sapiens) (UniProt Q15303). Conditions: 1 uM.
Description: Inhibition of HER4 (unknown origin) at 1 uM after 1 hr relative to control
The subject of data set [3] is Mus musculus. Nature of the data set: Toxicity in nude mouse xenografted with human NCI-H1975 cells expressing T790M/L858R mutation assessed as body weight loss at 20 to 40 mg/kg, ip qd for 14 days relative to control. On the set-up: dose 20-40 mg/kg, route intraperitoneal. The format is organism-based. Particulars: in vivo, 336 h.
The test system of data set [4] is NCI-H1975. Nature of the data set: cells. The format is functional, cell-based. Particulars: Homo sapiens, NCI-H1975, 72 h.
The test system of data set [5] is NCI-H1975. Nature of the data set: Antitumor activity against human NCI-H1975 cells xenografted in nude mouse assessed as induction of tumor stasis at 20 mg/kg, ip qd for 14 days. The format is functional, organism-based. The arrangement: dose 20 mg/kg. For orientation: A xenograft is tissue or cells of one species grown in another, often human tumour cells in immunodeficient mice.

In data set [6] the test system is Epidermal growth factor receptor (Homo sapiens), P00533 [L858R]. Particulars: 1 uM.
Data set [7] deals with Receptor tyrosine-protein kinase erbB-2 (Homo sapiens) (UniProt P04626). Particulars: 1 uM.
Description: Inhibition of HER2 (unknown origin) at 1 uM after 1 hr relative to control
Data set [8] addresses T2, Epidermal growth factor receptor (Homo sapiens, UniProt P00533). Particulars: 1 uM.
Description: Inhibition of EGFR (unknown origin) at 1 uM after 1 hr relative to control
Data set [9] has as its system Epidermal growth factor receptor (Homo sapiens), P00533 [L858R,T790M]. Conditions: 1 uM.
In data set [10] the target is Epidermal growth factor receptor (Homo sapiens, UniProt P00533, L858R). Nature of the data set: Inhibition of EGFR L858R mutant (unknown origin) using Tyr 4 peptide as substrate after 1.5 hrs by FRET-based Z'-LYTE assay. Particulars: read-out: IC50. The format is protein assay.
Data set [11] concerns the target T2, Epidermal growth factor receptor. In words: Inhibition of wild type EGFR (unknown origin) using Tyr 4 peptide as substrate after 1.5 hrs by FRET-based Z'-LYTE assay. Conditions: read-out: IC50.
The target in data set [12] is Tyrosine-protein kinase BTK (Homo sapiens) (UniProt Q06187). Particulars: 1 uM.
Description: Inhibition of BTK (unknown origin) at 1 uM after 1 hr relative to control
Data set [13] in a line: Toxicity in ip dosed nude mouse xenografted with human NCI-H1975 cells expressing T790M/L858R mutation administered qd for 14 days. Format: organism-based. Conditions: in vivo.
Data set [14] relates to Epidermal growth factor receptor (Homo sapiens), P00533 [T790M]. Conditions: 1 uM.
Data set [15] in a line: Antiproliferative activity against gefitinib-sensitive human HCC827 cells harboring EGFR E746 to A750 deletion after 72 hrs by MTS assay. The format is functional, cell-based. Particulars: HCC827, 72 h. A general note: Tetrazolium assays rely on reduction of a dye to a coloured formazan, in cell work by metabolically active cells.
Data set [16] concerns the target Epidermal growth factor receptor (Homo sapiens, UniProt P00533, L858R/T790M). In words: Inhibition of EGFR T790M/L858R double mutant (unknown origin) using Tyr 4 peptide as substrate after 1.5 hrs by FRET-based Z'-LYTE assay. Format: protein assay.
Data set [17] deals with NCI-H1975. In words: Antitumor activity against human NCI-H1975 cells xenografted in nude mouse assessed as tumor growth inhibition at 20 mg/kg, ip qd for 14 days. The format is functional, organism-based. On the set-up: dose 20 mg/kg.
Data set [18] deals with Mus musculus. In words: Toxicity in nude mouse xenografted with human NCI-H1975 cells expressing T790M/L858R mutation assessed as mortality at 20 to 40 mg/kg, ip qd for 14 days. The format is organism-based. On the set-up: dose 20-40 mg/kg, route intraperitoneal. Conditions: in vivo, 336 h.

The residual activity is the share of the control activity or signal that is left under treatment. Lower therefore signals a large loss of activity. As usually defined, the IC50 is the concentration needed to halve the response being measured.

SMILES strings stand for the structures. Active and inactive are the calls of the source. No cut-off for these calls is given here.

T2 sequence (P00533 whole entry): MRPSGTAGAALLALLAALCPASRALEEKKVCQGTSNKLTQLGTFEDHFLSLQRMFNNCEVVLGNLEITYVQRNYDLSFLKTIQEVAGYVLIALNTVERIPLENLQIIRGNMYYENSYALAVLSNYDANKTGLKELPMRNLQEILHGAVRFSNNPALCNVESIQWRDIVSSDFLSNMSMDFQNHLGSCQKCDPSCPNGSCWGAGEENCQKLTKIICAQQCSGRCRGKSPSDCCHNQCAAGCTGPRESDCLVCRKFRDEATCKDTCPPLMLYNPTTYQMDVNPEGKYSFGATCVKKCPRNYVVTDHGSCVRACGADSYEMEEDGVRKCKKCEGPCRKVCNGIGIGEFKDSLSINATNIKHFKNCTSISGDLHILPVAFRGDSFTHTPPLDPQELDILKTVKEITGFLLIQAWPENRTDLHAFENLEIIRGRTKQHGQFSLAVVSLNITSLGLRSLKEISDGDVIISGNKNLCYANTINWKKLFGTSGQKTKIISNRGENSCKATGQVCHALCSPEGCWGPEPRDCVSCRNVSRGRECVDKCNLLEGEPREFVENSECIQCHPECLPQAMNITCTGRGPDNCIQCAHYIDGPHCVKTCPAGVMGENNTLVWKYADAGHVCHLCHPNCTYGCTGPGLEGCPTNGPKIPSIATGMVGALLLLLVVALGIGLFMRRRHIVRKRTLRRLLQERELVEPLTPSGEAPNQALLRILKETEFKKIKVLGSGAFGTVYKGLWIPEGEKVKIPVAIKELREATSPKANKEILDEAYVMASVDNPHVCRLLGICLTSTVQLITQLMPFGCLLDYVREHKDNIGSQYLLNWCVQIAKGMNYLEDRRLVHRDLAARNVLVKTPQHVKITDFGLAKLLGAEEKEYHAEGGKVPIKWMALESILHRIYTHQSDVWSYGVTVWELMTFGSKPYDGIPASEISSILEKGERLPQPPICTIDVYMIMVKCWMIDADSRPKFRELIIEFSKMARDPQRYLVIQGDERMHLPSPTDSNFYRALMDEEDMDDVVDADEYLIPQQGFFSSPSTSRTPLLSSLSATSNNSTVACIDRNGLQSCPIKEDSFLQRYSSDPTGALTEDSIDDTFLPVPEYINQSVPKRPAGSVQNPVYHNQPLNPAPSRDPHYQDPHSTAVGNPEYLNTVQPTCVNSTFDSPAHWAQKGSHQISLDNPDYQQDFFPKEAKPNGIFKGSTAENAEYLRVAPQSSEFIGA
Sequence of Tyrosine-protein kinase BTK (Homo sapiens) (Q06187 whole entry): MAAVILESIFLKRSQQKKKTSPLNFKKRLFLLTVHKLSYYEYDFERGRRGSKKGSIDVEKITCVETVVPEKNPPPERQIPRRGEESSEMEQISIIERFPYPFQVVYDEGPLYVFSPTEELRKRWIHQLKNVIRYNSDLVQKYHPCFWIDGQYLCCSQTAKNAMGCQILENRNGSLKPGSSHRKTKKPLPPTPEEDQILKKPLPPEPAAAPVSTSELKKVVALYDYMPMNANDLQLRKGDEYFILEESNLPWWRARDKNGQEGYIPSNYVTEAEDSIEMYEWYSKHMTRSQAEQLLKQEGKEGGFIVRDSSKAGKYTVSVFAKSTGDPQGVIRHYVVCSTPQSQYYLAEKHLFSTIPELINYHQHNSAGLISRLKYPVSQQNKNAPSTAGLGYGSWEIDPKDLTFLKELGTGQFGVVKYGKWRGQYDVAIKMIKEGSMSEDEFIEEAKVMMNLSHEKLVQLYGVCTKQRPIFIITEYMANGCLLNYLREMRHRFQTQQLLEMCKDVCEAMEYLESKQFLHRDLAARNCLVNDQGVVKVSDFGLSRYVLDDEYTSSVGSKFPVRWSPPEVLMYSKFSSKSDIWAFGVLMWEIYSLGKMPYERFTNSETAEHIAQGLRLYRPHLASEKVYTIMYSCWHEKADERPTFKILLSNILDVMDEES
Sequence of Receptor tyrosine-protein kinase erbB-2 (Homo sapiens) (P04626 whole entry): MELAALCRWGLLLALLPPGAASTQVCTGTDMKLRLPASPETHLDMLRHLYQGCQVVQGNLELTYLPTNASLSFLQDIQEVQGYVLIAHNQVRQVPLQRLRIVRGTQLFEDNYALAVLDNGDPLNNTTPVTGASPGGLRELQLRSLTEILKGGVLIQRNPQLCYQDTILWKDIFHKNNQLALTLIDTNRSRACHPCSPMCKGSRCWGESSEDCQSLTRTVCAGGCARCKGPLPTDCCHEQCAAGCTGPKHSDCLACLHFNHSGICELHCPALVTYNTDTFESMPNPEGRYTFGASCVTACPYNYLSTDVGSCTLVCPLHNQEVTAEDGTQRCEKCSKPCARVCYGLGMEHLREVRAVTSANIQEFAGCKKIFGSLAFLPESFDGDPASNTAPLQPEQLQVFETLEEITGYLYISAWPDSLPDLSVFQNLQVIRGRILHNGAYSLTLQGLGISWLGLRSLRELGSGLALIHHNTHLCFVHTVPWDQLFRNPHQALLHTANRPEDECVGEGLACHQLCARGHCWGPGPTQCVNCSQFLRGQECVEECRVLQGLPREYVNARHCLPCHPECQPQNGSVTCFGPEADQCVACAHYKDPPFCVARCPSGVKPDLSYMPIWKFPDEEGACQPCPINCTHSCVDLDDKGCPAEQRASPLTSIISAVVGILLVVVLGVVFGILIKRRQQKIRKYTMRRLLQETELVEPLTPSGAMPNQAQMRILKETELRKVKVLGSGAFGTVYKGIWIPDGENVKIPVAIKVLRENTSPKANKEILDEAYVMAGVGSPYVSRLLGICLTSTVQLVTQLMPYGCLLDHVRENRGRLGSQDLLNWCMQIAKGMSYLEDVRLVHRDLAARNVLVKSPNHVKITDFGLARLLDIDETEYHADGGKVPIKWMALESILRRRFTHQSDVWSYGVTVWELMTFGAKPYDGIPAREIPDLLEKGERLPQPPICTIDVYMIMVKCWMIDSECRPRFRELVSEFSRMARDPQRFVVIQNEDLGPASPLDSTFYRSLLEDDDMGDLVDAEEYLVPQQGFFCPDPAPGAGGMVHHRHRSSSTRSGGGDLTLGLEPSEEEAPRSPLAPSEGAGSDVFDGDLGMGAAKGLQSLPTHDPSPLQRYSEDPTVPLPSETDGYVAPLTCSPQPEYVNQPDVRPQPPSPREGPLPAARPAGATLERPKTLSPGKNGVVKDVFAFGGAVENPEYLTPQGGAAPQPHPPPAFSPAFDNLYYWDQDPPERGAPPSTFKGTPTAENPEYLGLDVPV
Sequence of Epidermal growth factor receptor (Homo sapiens, UniProt P00533, L858R/T790M) (P00533 25-1210 T790M/L858R limits assumed): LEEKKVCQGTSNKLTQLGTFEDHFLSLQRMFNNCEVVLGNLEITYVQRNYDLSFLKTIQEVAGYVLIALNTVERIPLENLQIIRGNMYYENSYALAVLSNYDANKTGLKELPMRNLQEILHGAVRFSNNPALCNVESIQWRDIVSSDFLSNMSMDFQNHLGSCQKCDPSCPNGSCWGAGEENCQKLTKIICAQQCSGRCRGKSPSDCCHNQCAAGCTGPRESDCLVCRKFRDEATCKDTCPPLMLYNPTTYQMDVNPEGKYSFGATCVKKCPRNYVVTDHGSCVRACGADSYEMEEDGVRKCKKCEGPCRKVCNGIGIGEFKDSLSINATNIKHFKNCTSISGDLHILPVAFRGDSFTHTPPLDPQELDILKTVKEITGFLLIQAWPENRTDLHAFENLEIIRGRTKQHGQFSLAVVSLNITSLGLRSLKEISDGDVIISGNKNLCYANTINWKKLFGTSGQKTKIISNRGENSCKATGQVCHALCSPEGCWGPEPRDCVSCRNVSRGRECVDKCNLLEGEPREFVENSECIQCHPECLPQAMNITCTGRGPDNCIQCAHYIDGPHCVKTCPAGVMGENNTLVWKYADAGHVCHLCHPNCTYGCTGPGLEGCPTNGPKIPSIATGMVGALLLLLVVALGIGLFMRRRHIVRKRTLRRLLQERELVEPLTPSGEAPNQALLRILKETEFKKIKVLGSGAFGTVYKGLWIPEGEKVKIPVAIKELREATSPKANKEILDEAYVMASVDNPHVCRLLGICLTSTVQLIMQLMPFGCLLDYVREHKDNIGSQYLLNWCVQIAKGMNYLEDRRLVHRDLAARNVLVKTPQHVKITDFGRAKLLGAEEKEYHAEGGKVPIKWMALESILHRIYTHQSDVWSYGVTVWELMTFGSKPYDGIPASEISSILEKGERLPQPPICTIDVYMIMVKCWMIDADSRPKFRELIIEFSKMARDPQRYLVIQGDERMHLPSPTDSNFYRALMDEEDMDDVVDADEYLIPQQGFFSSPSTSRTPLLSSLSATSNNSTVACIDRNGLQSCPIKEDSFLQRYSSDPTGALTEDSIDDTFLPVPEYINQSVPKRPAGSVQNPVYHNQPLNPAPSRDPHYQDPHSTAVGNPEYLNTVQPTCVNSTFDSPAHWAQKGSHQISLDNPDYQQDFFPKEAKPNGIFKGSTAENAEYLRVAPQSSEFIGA

Turning to `C=CC(=O)Nc1cccc(-n2c(=O)cnc3cnc(Nc4ccc(N5CCN(C)CC5)cc4OC)nc32)c1`, the residual activity in data set [1] was under 10%; in [2] it was under 1%; in [6], 0.3%; in [7] it was under 10%; in data set [8] it was under 10%; in data set [9], 0.1%. For the same compound, the figures for the residual activity in data set [12] and in data set [14] were under 1% and 0.35%, respectively. Besides, the Activity was under 5% with Mus musculus [3] and “Non-toxic” in the data set with Mus musculus [18]. In addition, the concentration for half-maximal inhibition (IC50) with NCI-H1975 [4] came out at 59 nM; in [10] it was 2.56 nM; in data set [11] it was 3.82 nM; in data set [15] it was 8.6 nM; in data set [16] it was 1.07 nM. The outcome in the data set on NCI-H1975 [5] was Active. The compound further yielded an MTD at 336 h in [13] of 20 mg/kg. Further, in the data set on NCI-H1975 [17], the TGI entry was “Active”.
